In one assay the test system is COL3A1 (Collagen 3). Put plainly: Expression of extracellular matrix gene Collagen 3, RT-PCR in NHDF. The assay is classed as cell-based, human. The settings on record: 10^−5 M, 24 hours, quantitative RT-PCR. Here is the method:
(§1) In these examples, the expression of messenger RNAs was measured via the technique of quantitative RT-PCR (reverse transcription followed by polymerase chain reaction), after in vitro incubation of the various cell types in the absence or presence of the test compounds.
(§2) This study was performed on normal human dermal fibroblasts (NHDF) or on normal human epidermal keratinocytes (NHEK), depending on the genes tested. The molecules were tested at 10^−5 M in aqueous 0.1% dimethyl sulfoxide (DMSO) solution.
(§3) The cells were cultured at a concentration of 10,000 cells per well of 96-well plates, in the presence of standard culture medium as a function of the cell type.
(§4) The compounds were then added at the test concentration, for 24 hours.
(§5) The supernatant was removed and the cells were taken up in a specific buffer for extraction of the messenger RNAs (mRNA). The mRNAs were purified and reverse-transcribed in the presence of a commercial reverse transcriptase.
(§6) The complementary DNAs (cDNA) obtained were used in a real-time quantitative PCR experiment, by means of suitable primers. The degree of expression of the mRNAs was normalized with five reference genes.
(§7) The cells used for this example are normal human fibroblasts (NHDF).
(§8) The contact with the test compounds was carried out for 24 hours. […]

For a further assay, the system named is LAMA5 (Laminin alpha 5). The assay is described as follows: Expression of extracellular matrix gene Laminin alpha 5, RT-PCR in NHDF. The assay is classed as cell-based, human. The settings on record: 10^−5 M, 24 hours, quantitative RT-PCR. Here is the method:
as §1, §2, §3, §4, §5, §6, §7, §8

For a further assay, the system named is EVPL (Envoplakin). The assay is described as follows: Expression of cell differentiation and adhesion gene EVPL, RT-PCR in NHEK. Type of assay: cell-based, human. Conditions: 10^−5 M, 24 hours, quantitative RT-PCR. As for the experimental part:
as §1, §2, §3, §4, §5, §6
(§9) The cells used for this example are normal human keratinocytes (NHEK).
as §8

Another assay relates to CRNN (Cornulin). The assay is described as follows: Expression of cell differentiation and adhesion gene CRNN, RT-PCR in NHEK. Type of assay: cell-based, human. Conditions: 10^−5 M, 24 hours, quantitative RT-PCR. As for the experimental part:
as §1, §2, §3, §4, §5, §6, §9, §8

Assay [1] concerns SPINK5 (Serine peptidase Kazal type 5). Put plainly: Expression of cell differentiation and adhesion gene SPINK5, RT-PCR in NHEK. Conditions: 10^−5 M, 24 hours, quantitative RT-PCR. Type of assay: cell-based, human. As for the experimental part: as §1, §2, §3, §4, §5, §6, §9, §8
Another assay has as its system AQP3 (Aquaporin 3). Put plainly: Expression of cell differentiation and adhesion gene AQP3, RT-PCR in NHEK. Type of assay: cell-based, human. The settings on record: 10^−5 M, 24 hours, quantitative RT-PCR. As for the experimental part: as §1, §2, §3, §4, §5, §6, §9, §8
For assay [2], the system named is TGM1 (Transglutaminase 1). Put plainly: Expression of cell differentiation and adhesion gene TGM1, RT-PCR in NHEK. The assay is classed as cell-based, human. The settings on record: 10^−5 M, 24 hours, quantitative RT-PCR. As for the experimental part:
as §1, §2, §3, §4, §5, §6, §9, §8

In assay [3] the test system is HAS3 (Hyaluronan synthase 3). The assay is described as follows: Expression of extracellular matrix gene Hyaluronan synthase 3, RT-PCR in NHDF. The assay is classed as cell-based, human. Conditions: 10^−5 M, 24 hours, quantitative RT-PCR. Here is the method: as §1, §2, §3, §4, §5, §6, §7, §8
A further assay relates to sirtuin-5. The assay is described as follows: Expression of the gene coding for sirtuin-5, quantitative RT-PCR in NHDF. The assay is classed as cell-based. The settings on record: normal human fibroblasts (NHDF), 10^−5 M in 0.1% DMSO, 24 hours, mRNA by quantitative RT-PCR. As for the experimental part:
In these examples, the expression of messenger RNAs was measured via the technique of quantitative RT-PCR (reverse transcription followed by polymerase chain reaction), after in vitro incubation of the various cell types in the absence or presence of the test compounds. This study was performed on normal human dermal fibroblasts (NHDF) or on normal human epidermal keratinocytes (NHEK), depending on the genes tested. The molecules were tested at 10^−5 M in aqueous 0.1% dimethyl sulfoxide (DMSO) solution. The cells were cultured at a concentration of 10,000 cells per well of 96-well plates, in the presence of standard culture medium as a function of the cell type. The compounds were then added at the test concentration, for 24 hours. The supernatant was removed and the cells were taken up in a specific buffer for extraction of the messenger RNAs (mRNA). The mRNAs were purified and reverse-transcribed in the presence of a commercial reverse transcriptase. The complementary DNAs (cDNA) obtained were used in a real-time quantitative PCR experiment, by means of suitable primers. The degree of expression of the mRNAs was normalized with five reference genes. The cells used for this example are normal human fibroblasts (NHDF). The contact with the test compounds was carried out for 24 hours. The results obtained, in terms of expression of sirtuin-5 (coded for by the gene of Genbank accession number: NC—000006.11) relative to the basal level (absence of compound) taken to 100%, are shown in Table 5 below.

The subject of the next assay is SPARC (Osteonectin). Put plainly: Expression of extracellular matrix gene SPARC, RT-PCR in NHDF. Type of assay: cell-based, human. The settings on record: 10^−5 M, 24 hours, quantitative RT-PCR. Here is the method: as §1, §2, §3, §4, §5, §6, §7, §8
Assay [4] deals with MMP-9 (matrix metalloprotease type 9). The assay is described as follows: Gene expression of MMP-9, quantitative RT-PCR in NHEK. The assay is classed as cell-based. Conditions: normal human keratinocytes (NHEK), 10^−5 M in 0.1% DMSO, 24 hours, mRNA by quantitative RT-PCR. As for the experimental part: as §1, §2, §3, §4, §5, §6
The cells used for this example were normal human keratinocytes (NHEK).
The contact with the test compounds was carried out for 24 hours.

A further assay deals with ELN (Elastin). The assay is described as follows: Expression of extracellular matrix gene Elastin, RT-PCR in NHDF. The assay is classed as cell-based, human. The settings on record: 10^−5 M, 24 hours, quantitative RT-PCR. Here is the method:
as §1, §2, §3, §4, §5, §6, §7, §8

A further assay concerns COL5A1 (Collagen 5). The assay is described as follows: Expression of extracellular matrix gene Collagen 5, RT-PCR in NHDF. The settings on record: 10^−5 M, 24 hours, quantitative RT-PCR. The assay is classed as cell-based, human. As for the experimental part: as §1, §2, §3, §4, §5, §6, §7, §8
A further assay has as its system KRT1 (Keratin 1). Put plainly: Expression of cell differentiation and adhesion gene KRT1, RT-PCR in NHEK. Type of assay: cell-based, human. The settings on record: 10^−5 M, 24 hours, quantitative RT-PCR. Here is the method: as §1, §2, §3, §4, §5, §6, §9, §8
A further assay relates to Collagen 1. Put plainly: Expression of Collagen 1 at the protein level by immunofluorescence in NHDF. The assay is classed as cell-based, human. Conditions: 10 ppm in 0.1% DMSO, 24 hours, FIG. 1. Here is the method:
In this example, the expression of Collagen 1 was measured at the protein level via the immunofluorescence technique, after in vitro incubation of the cells in the absence or presence of the test compounds, at a concentration of 10 ppm in aqueous 0.1% DMSO solution.
The compound in accordance with the invention of formula (IIa) and the comparative compounds Comp.1 and Comp.2, of respective formula (IV) and (V), were tested.
TGFβ was used as positive control, at a concentration of 10 ng/ml in an aqueous solution. An untreated control was also realized.
This study was performed on normal human dermal fibroblasts (NHDF).
The cells were cultured at a concentration of 4000 cells per well in 96-well plates, in the presence of standard culture medium.
The compounds were then added at the test concentration, identical for all, for 24 hours.
The supernatant was removed and the cells were prepared for the fluorescent labeling. The cells were fixed in the presence of 3.7% formaldehyde, and then permeabilized in a buffer containing 1% Triton®, and finally the cells were rinsed and incubated in the presence of an anti-Collagen1 monoclonal antibody (Abcam) for one hour 30 minutes. After washing, the cells were incubated in the presence of the secondary antibody (Alexa GAM488, Invitrogen) for 1 hour. […]
The fluorescence was then quantified using an automated microscope (ArrayScan®, Cellomics®). […]

The next assay deals with COL1A11 (Collagen 1). Put plainly: Expression of extracellular matrix gene Collagen 1, RT-PCR in NHDF. The assay is classed as cell-based, human. Conditions: 10^−5 M, 24 hours, quantitative RT-PCR. Here is the method: as §1, §2, §3, §4, §5, §6, §7, §8
For a further assay, the system named is EPPK1 (Epiplakin 1). Put plainly: Expression of cell differentiation and adhesion gene EPPK1, RT-PCR in NHEK. Conditions: 10^−5 M, 24 hours, quantitative RT-PCR. The assay is classed as cell-based, human. Here is the method:
as §1, §2, §3, §4, §5, §6, §9, §8

A further assay relates to protein Klotho (KL). Put plainly: Expression of the gene coding for the protein Klotho (KL), quantitative RT-PCR in NHDF. Type of assay: cell-based. The settings on record: normal human fibroblasts (NHDF), 10^−5 M in 0.1% DMSO, 24 hours, mRNA by quantitative RT-PCR. Here is the method:
as §1, §2, §3, §4, §5, §6, §7, §8

Turning to `COc1ccc2[nH]cc(CCNC(=O)/C=C/c3ccc(O)c(O)c3)c2c1` [(IIa), (2E)-3-(3,4-Dihydroxyphenyl)-N-[2-(5-methoxy-1H-indol-3-yl)ethyl]-2-propenamide], the “Gene expression relative to the basal level taken to 100%: COL3A1 (Collagen 3)” value in the assay with COL3A1 (Collagen 3) is given as 125%. Besides, the “Gene expression relative to the basal level taken to 100%: LAMA5 (Laminin alpha 5)” value in the assay on LAMA5 (Laminin alpha 5) turned out to be 141%. Besides, the “Gene expression relative to the basal level taken to 100%: EVPL (Envoplakin)” value in the assay with EVPL (Envoplakin) is listed as 166%. In the assay with CRNN (Cornulin), the “Gene expression relative to the basal level taken to 100%: CRNN (Cornulin)” value worked out at 261%. Also, the “Gene expression relative to the basal level taken to 100%: SPINK5 (Serine peptidase Kazal type 5)” value in [1] turned out to be 173%. Further, the “Gene expression relative to the basal level taken to 100%: AQP3 (Aquaporin 3)” value in the assay on AQP3 (Aquaporin 3) came to 228%. In assay [2], the “Gene expression relative to the basal level taken to 100%: TGM1 (Transglutaminase 1)” value stood at 183%. Moreover, the “Gene expression relative to the basal level taken to 100%: HAS3 (Hyaluronan synthase 3)” value in assay [3] is listed as 144%. The “Expression of sirtuin-5 relative to the basal level taken to 100%” value in the assay with sirtuin-5 amounted to 153%. In the assay on SPARC (Osteonectin), the “Gene expression relative to the basal level taken to 100%: SPARC (Osteonectin)” value was found to be 118%. In assay [4], the “Decrease of expression of MMP-9 relative to the basal level taken to 100%” value is on record as −67%. Moreover, in the assay on ELN (Elastin), the “Gene expression relative to the basal level taken to 100%: ELN (Elastin)” value was 136%. Further, the “Gene expression relative to the basal level taken to 100%: COL5A1 (Collagen 5)” value in the assay with COL5A1 (Collagen 5) was found to be 144%. In addition, the “Gene expression relative to the basal level taken to 100%: KRT1 (Keratin 1)” value in the assay with KRT1 (Keratin 1) is listed as 142%. Also, the “Expression (production) of Collagen 1 relative to the basal level (control) taken to 100%” value with Collagen 1 is recorded as “substantially stimulates the production of collagen 1 by the cells, as much as the positive control (TGFβ)”. The “Gene expression relative to the basal level taken to 100%: COL1A11 (Collagen 1)” value in the assay with COL1A11 (Collagen 1) is 133%. Also, the “Gene expression relative to the basal level taken to 100%: EPPK1 (Epiplakin 1)” value in the assay with EPPK1 (Epiplakin 1) is 177%.

As for `COc1ccc2[nH]cc(CCNC(=O)/C=C/c3ccc(O)cc3)c2c1` [(IIb)], in the assay on sirtuin-5, the “Expression of sirtuin-5 relative to the basal level taken to 100%” value is 125%. In the assay on protein Klotho (KL), the “Expression of the protein Klotho relative to the basal level taken to 100%” value is “+144%”.

For the compound `COc1ccc2[nH]cc(CCNC(=O)c3ccc(O)cc3O)c2c1` [(IIc)], the “Decrease of expression of MMP-9 relative to the basal level taken to 100%” value in assay [4] is on record as −56%.

As to `COc1cc(/C=C/C(=O)NCCc2c[nH]c3ccc(O)cc23)ccc1O` [(IId)], the “Decrease of expression of MMP-9 relative to the basal level taken to 100%” value in assay [4] was −47%.

As to `O=C(NCCc1c[nH]c2ccc(O)cc12)c1ccc(O)c(O)c1` [(IIe)], the “Expression of sirtuin-5 relative to the basal level taken to 100%” value in the assay on sirtuin-5 was determined as 146%. Further, the “Decrease of expression of MMP-9 relative to the basal level taken to 100%” value in assay [4] is −81%.

`O=C(/C=C/c1ccc(O)c(O)c1)NCCc1c[nH]c2ccc(O)cc12` [(IIf)]: the “Expression of sirtuin-5 relative to the basal level taken to 100%” value with sirtuin-5 is recorded as 140%. In addition, the “Decrease of expression of MMP-9 relative to the basal level taken to 100%” value in assay [4] is on record as −63%.

As to `O=C(NCCc1c[nH]c2ccccc12)c1ccc(O)cc1` [Comp.2, 4-hydroxy-N-[2-(1H-indol-3-yl)ethyl]benzamide, reference compound], the “Expression (production) of Collagen 1 relative to the basal level (control) taken to 100%” value in the assay with Collagen 1 is listed as “do not stimulate, or only very sparingly stimulate”.

(Values after patent US20150031740A1, “COSMETIC COMPOSITION FOR STIMULATING THE CELLULAR ANTI-AGING FUNCTIONS OF THE SKIN” (SYNTIVIA, priority 2011, published 2015).)
